Data as given in paper PMC10384010, “Chromatographic Data in Statistical Analysis of BBB Permeability Indices” (Membranes, 2023).
Read-outs that look alike come from different tables or passages of the source.

How the values were obtained:
[1] = cited from earlier work
[2] = HPLC on IAM (immobilized artificial membrane) column, retention factor; format: physicochemical; conditions: IAM.PC.DD.2 column; for k(IAM) retention factor: 10 mM phosphate buffer pH 7.4:acetonitrile 80:20; for logkIAM: logarithm of retention factor, phosphate buffer pH 7.4:acetonitrile 80:20
[3] = Normal-phase TLC on silica gel 60 F254 (Rf); format: physicochemical; conditions: water:methanol:acetonitrile 60:20:20, ammonium acetate pH 7.4
Method: (§1) The purity of the isolated substances was checked by TLC chromatography and densitometric scanning.
(§2) APIs were subjected to chromatographic in column (HPLC) and thin layer (TLC) formats. TLC chromatography was carried out on 20 cm × 20 cm glass plates by Merck, covered with silica gel and the addition of a fluorescent indicator. Merck TLC silica gel 60 F254 was used for the normal phase (NP). In the reverse phase (RP), RP-2 silanized plates were used (Merck TLC Silica gel 60 RP-2 F254, silanized). The mobile phase was buffered with ammonium acetate to pH 7.4 (LACH-NER, ammonium acetate).
(§3) Plates, after developing the chromatograms, were scanned using a densitometer (Desaga CD 60) with an analytical wavelength selected individually for drugs. The values of Rf (molecular descriptors: NP, RP) were determined.

[4] = Reversed-phase TLC on RP-2 silanized plates (Rf); format: physicochemical; conditions: silica gel 60 RP-2 F254 silanized; water:methanol:acetonitrile 60:20:20, ammonium acetate pH 7.4
Method: as §1, §2, §3

[5] = plasma protein binding, given as fraction, ref Drugbank

SMILES: CCCC(=O)Nc1ccc(OCC(O)CNC(C)C)c(C(C)=O)c1 (stereo not shown) [acebutolol]
- PB (protein binding) [1, 5]: 0.26

SMILES: O=C(O)COC(=O)Cc1ccccc1Nc1c(Cl)cccc1Cl [aceclofenac]
- PB (protein binding) [1, 5]: 0.99
- k(IAM) retention factor [2]: 2.63
- logkIAM [2]: 0.42
- NP (Rf from NP TLC plate) [3]: 0.89

SMILES: CC(=O)Nc1nnc(S(N)(=O)=O)s1 [acetazolamid]
- RP (Rf from RP-2 TLC plate) [4]: 0.97
- PB (protein binding) [1, 5]: 0.98

SMILES: Nc1nc2c(ncn2COCCO)c(=O)[nH]1 [aciclovir]
- RP (Rf from RP-2 TLC plate) [4]: 0.99
- PB (protein binding) [1, 5]: 0.21
- k(IAM) retention factor [2]: 0.09
- logkIAM [2]: -1.04

SMILES: Cc1nnc2n1-c1ccc(Cl)cc1C(c1ccccc1)=NC2 [alprazolam]
- PB (protein binding) [1, 5]: 0.8
- k(IAM) retention factor [2]: 3.14
- logkIAM [2]: 0.50

SMILES: CC1(C)S[C@@H]2[C@H](NC(=O)[C@H](N)c3ccc(O)cc3)C(=O)N2[C@H]1C(=O)O [amoxilcillin]
- RP (Rf from RP-2 TLC plate) [4]: 0.99
- PB (protein binding) ([1]; plasma): 0.2
- k(IAM) retention factor [2]: 0.05
- logkIAM [2]: -1.32
- NP (Rf from NP TLC plate) [3]: 0.68

SMILES: CC(C)NCC(O)COc1ccc(CCOCC2CC2)cc1 (stereo not shown) [betaxolol]
- RP (Rf from RP-2 TLC plate) [4]: 0.27
- PB (protein binding) [1, 5]: 0.5
- NP (Rf from NP TLC plate) [3]: 0.66

SMILES: CCOCCn1c(C2CCN(CCc3ccc(C(C)(C)C(=O)O)cc3)CC2)nc2ccccc21 [bilastine]
- RP (Rf from RP-2 TLC plate) [4]: 0.76
- PB (protein binding) [1, 5]: 0.87
- k(IAM) retention factor [2]: 0.55
- logkIAM [2]: -0.26
- NP (Rf from NP TLC plate) [3]: 0.46

SMILES: OC(CCN1CCCCC1)(c1ccccc1)C1CC2C=CC1C2 (stereo not shown) [biperiden]
- RP (Rf from RP-2 TLC plate) [4]: 0.87
- PB (protein binding) [1, 5]: 0.6
- k(IAM) retention factor [2]: 41.47
- logkIAM [2]: 1.62
- NP (Rf from NP TLC plate) [3]: 0.68

SMILES: CC(C)C[C@H]1C(=O)N2CCC[C@H]2[C@]2(O)O[C@](NC(=O)[C@@H]3C=C4c5cccc6[nH]c(Br)c(c56)C[C@H]4N(C)C3)(C(C)C)C(=O)N12 [bromocriptine]
- RP (Rf from RP-2 TLC plate) [4]: 0.69
- PB (protein binding) [1, 5]: 0.93
- k(IAM) retention factor [2]: 12.69
- logkIAM [2]: 1.10
- NP (Rf from NP TLC plate) [3]: 0.95

SMILES: C=CCN1C[C@H](C(=O)N(CCCN(C)C)C(=O)NCC)C[C@@H]2c3cccc4[nH]cc(c34)C[C@H]21 [carbegoline]
- RP (Rf from RP-2 TLC plate) [4]: 0.68
- PB (protein binding) ([1]; plasma): 0.41
- k(IAM) retention factor [2]: 17.05
- logkIAM [2]: 1.23
- NP (Rf from NP TLC plate) [3]: 0.68

SMILES: CCN(CC)C(=O)Nc1ccc(OCC(O)CNC(C)(C)C)c(C(C)=O)c1 (stereo not shown) [celiprolol]
- RP (Rf from RP-2 TLC plate) [4]: 0.75
- PB (protein binding) [1, 5]: 0.275
- k(IAM) retention factor [2]: 5.87
- logkIAM [2]: 0.77
- NP (Rf from NP TLC plate) [3]: 0.45

SMILES: CCN(CC)CCCC(C)Nc1ccnc2cc(Cl)ccc12 (stereo not shown) [chloroquine]
- PB (protein binding) [1, 5]: 0.55

SMILES: CN(C)CCCC1(c2ccc(F)cc2)OCc2cc(C#N)ccc21 (stereo not shown) [citalopram]
- PB (protein binding) [1, 5]: 0.8

SMILES: CN(C)CCC[C@@]1(c2ccc(F)cc2)OCc2cc(C#N)ccc21 [escitalopram]
- PB (protein binding) [1, 5]: 0.56
- k(IAM) retention factor [2]: 32.08
- logkIAM [2]: 1.51

SMILES: CC(=O)OCC(=O)[C@@]1(O)CC[C@H]2[C@@H]3CCC4=CC(=O)CC[C@]4(C)[C@H]3[C@@H](O)C[C@@]21C [hydrocortisone acetate]
- PB (protein binding) [1, 5]: 0.95
- k(IAM) retention factor [2]: 2.82
- logkIAM [2]: 0.45
- NP (Rf from NP TLC plate) [3]: 0.96

SMILES: COC(=O)c1ccc(O)cc1 [methyl paraben]
- RP (Rf from RP-2 TLC plate) [4]: 0.85
- k(IAM) retention factor [2]: 1.94
- logkIAM [2]: 0.29
- NP (Rf from NP TLC plate) [3]: 0.97

SMILES: CC1COc2c(N3CCN(C)CC3)c(F)cc3c(=O)c(C(=O)O)cn1c23 (stereo not shown) [ofloxacin]
- PB (protein binding) [1, 5]: 0.32
- NP (Rf from NP TLC plate) [3]: 0.24

SMILES: O=C1Nc2ccc(Cl)cc2C(c2ccccc2)=NC1O (stereo not shown) [oxazepam]
- RP (Rf from RP-2 TLC plate) [4]: 0.83
- k(IAM) retention factor [2]: 4.78
- logkIAM [2]: 0.68
- NP (Rf from NP TLC plate) [3]: 0.93

SMILES: CCN(CC)CC#CCOC(=O)C(O)(c1ccccc1)C1CCCCC1 (stereo not shown) [oxybutinin]
- RP (Rf from RP-2 TLC plate) [4]: 0.29
- k(IAM) retention factor [2]: 49.68
- logkIAM [2]: 1.70
- NP (Rf from NP TLC plate) [3]: 0.68

SMILES: CC(C)NCC(O)COc1cccc2[nH]ccc12 (stereo not shown) [pindolol]
- PB (protein binding) [1, 5]: 0.4
- k(IAM) retention factor [2]: 6.09
- logkIAM [2]: 0.78
- NP (Rf from NP TLC plate) [3]: 0.53

SMILES: CCCc1cc(=O)[nH]c(=S)[nH]1 [propylthiouracil]
- PB (protein binding) [1, 5]: 0.82

SMILES: CO[C@H]1/C=C/O[C@@]2(C)Oc3c(C)c(O)c4c(O)c(c(/C=N/N5CCN(C)CC5)c(O)c4c3C2=O)NC(=O)/C(C)=C\C=C\[C@H](C)[C@H](O)[C@@H](C)[C@@H](O)[C@@H](C)[C@H](OC(C)=O)[C@@H]1C [rifampicin]
- RP (Rf from RP-2 TLC plate) [4]: 0.95
- PB (protein binding) [1, 5]: 0.89
- NP (Rf from NP TLC plate) [3]: 0.73

SMILES: CC(C)c1nc(N(C)S(C)(=O)=O)nc(-c2ccc(F)cc2)c1/C=C/[C@@H](O)C[C@@H](O)CC(=O)O [rosuvastatin]
- RP (Rf from RP-2 TLC plate) [4]: 0.92
- k(IAM) retention factor [2]: 0.96
- logkIAM [2]: -0.02
- NP (Rf from NP TLC plate) [3]: 0.9

SMILES: CC[C@H]1OC(=O)[C@H](C)[C@@H](O[C@H]2C[C@@](C)(OC)[C@@H](O)[C@H](C)O2)[C@H](C)[C@@H](O[C@@H]2O[C@H](C)C[C@H](N(C)C)[C@H]2O)[C@](C)(O)C[C@@H](C)/C(=N\OCOCCOC)[C@H](C)[C@@H](O)[C@]1(C)O [roxitromicin]
- RP (Rf from RP-2 TLC plate) [4]: 0.8
- PB (protein binding) ([1]; plasma): 0.96
- NP (Rf from NP TLC plate) [3]: 0.91

SMILES: CCS(=O)(=O)CCn1c([N+](=O)[O-])cnc1C [tinidazole]
- PB (protein binding) [1, 5]: 0.12
- NP (Rf from NP TLC plate) [3]: 0.89

SMILES: COc1cccc(C2(O)CCCCC2CN(C)C)c1 (stereo not shown) [tramadol]
- PB (protein binding) [1, 5]: 0.2

SMILES: CCCCC(=O)N(Cc1ccc(-c2ccccc2-c2nnn[nH]2)cc1)[C@H](C(=O)O)C(C)C [valsartan]
- PB (protein binding) [1, 5]: 0.955
- k(IAM) retention factor [2]: 0.08
- logkIAM [2]: -1.10
